Reference: patent US9187472B2 (AbbVie Inc., priority 2012, dated 2015)

What was measured:
[1] = tested on: PC3 cells; experiment: NAMPT Cell Proliferation Assay; format: cell-based; conditions: Homo sapiens, PC-3, 120 h, 5 days incubation, cell viability by Cell Titer Glo
Summary of the method: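 Cell Titer Glo viability after 5-day exposure (37° C, 5% CO2); PC3, 500 cells/well, RPMI + 10% heat-inactivated FBS, overnight attachment before dosing. Dose range 10 μM to 1×10^−5 μM, 10-fold steps. IC50 = sigmoidal fit of % inhibition.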

[2] = molecular target: NAMPT (Homo sapiens, UniProt P43490); experiment: TR-FRET Binding Assay of NAMPT with PRPP; conditions: with 200 μM PRPP and 2.5 mM ATP; 2 nM NAMPT, 2 nM probe, 16 hours equilibration
Summary of the method: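 NAMPT 2 nM + probe 2 nM + Tb-anti-His Ab 1 nM; PRPP 200 μM, ATP 2.5 mM, DMSO 2%; 16 h equilibration before TR-FRET read.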

[3] = molecular target: NAMPT (human, recombinant, C-terminally His-tagged) (Homo sapiens, UniProt P43490); experiment: Time-Resolved Fluorescence Resonance Energy Transfer (TR-FRET) Binding Assay of NAMPT; conditions: without substrates; 6.8 nM NAMPT, 200 nM probe, 3 hours equilibration
Summary of the method: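 Read-out is the time-resolved FRET ratio Em520/Em495 (excitation 337 nm) between a terbium anti-His antibody (1 nM) on the enzyme and an Oregon Green 488-labelled nicotinamide-competitive inhibitor probe (200 nM). Enzyme was 6.8 nM, DMSO 2%, pH 7.5 HEPES buffer; 3 h room-temperature equilibration preceded reading.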

Chain of NAMPT (human, recombinant, C-terminally His-tagged) (P43490 whole entry): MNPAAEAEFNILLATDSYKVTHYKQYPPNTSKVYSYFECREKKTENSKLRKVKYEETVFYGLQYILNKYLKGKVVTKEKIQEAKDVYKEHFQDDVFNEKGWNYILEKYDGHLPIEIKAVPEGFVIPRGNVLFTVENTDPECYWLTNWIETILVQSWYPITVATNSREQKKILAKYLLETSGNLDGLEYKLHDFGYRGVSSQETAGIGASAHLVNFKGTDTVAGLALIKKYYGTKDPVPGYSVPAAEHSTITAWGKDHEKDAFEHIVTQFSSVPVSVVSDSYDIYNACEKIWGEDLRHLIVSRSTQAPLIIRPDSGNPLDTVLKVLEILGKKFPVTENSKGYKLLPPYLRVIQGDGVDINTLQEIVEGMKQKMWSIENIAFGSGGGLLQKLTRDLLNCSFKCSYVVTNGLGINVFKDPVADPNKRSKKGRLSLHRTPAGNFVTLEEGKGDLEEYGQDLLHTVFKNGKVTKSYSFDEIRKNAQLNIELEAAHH
Chain of NAMPT (P43490 whole entry): as above

IC50 [1] [nM]	IC50 [2] [nM]	IC50 [3] [nM]	SMILES
585	0.36	3040	O=C(NCc1ccn2ccnc2c1)c1ccc(C2CCN(C(=O)[C@H]3CCCO3)C2)cc1 (stereo partly drawn) [Example 373, N-(imidazo[1,2-a]pyridin-7-ylmethyl)-4-{1-[(2R)-tetrahydrofuran-2-ylcarbonyl]pyrrolidin-3-yl}benzamide]
792	0.292	1670	O=C(NCc1ccn2ccnc2c1)c1ccc(C2CCN(C(=O)[C@@H]3CCCO3)C2)cc1 (stereo partly drawn) [Example 374, N-(imidazo[1,2-a]pyridin-7-ylmethyl)-4-{1-[(2S)-tetrahydrofuran-2-ylcarbonyl]pyrrolidin-3-yl}benzamide]
> 10000	0.241	986	O=C(NCc1ccn2ccnc2c1)c1ccc(C2CCN(C(=O)[C@H]3CCOC3)C2)cc1 (stereo partly drawn) [Example 375, N-(imidazo[1,2-a]pyridin-7-ylmethyl)-4-{1-[(3S)-tetrahydrofuran-3-ylcarbonyl]pyrrolidin-3-yl}benzamide]
> 10000	0.305	1050	O=C(NCc1ccn2ccnc2c1)c1ccc(C2CCN(C(=O)C3CCOCC3)C2)cc1 (stereo not drawn) [Example 376, N-(imidazo[1,2-a]pyridin-7-ylmethyl)-4-[1-(tetrahydro-2H-pyran-4-ylcarbonyl)pyrrolidin-3-yl]benzamide]
> 10000	0.275	1670	O=C(NCc1ccn2ccnc2c1)c1ccc(C2CCN(C(=O)C3COCCO3)C2)cc1 (stereo not drawn) [Example 377, 4-[1-(1,4-dioxan-2-ylcarbonyl)pyrrolidin-3-yl]-N-(imidazo[1,2-a]pyridin-7-ylmethyl)benzamide]
> 10000	0.169	897	O=C(NCc1ccn2ccnc2c1)c1ccc(C2CCN(C(=O)CC3CCOCC3)C2)cc1 (stereo not drawn) [Example 378, N-(imidazo[1,2-a]pyridin-7-ylmethyl)-4-[1-(tetrahydro-2H-pyran-4-ylacetyl)pyrrolidin-3-yl]benzamide]
370	0.29	279	CC(=O)N1CCC(c2ccc(NC(=O)NCc3ccn4ccnc4c3)cc2)C1 (stereo not drawn) [Example 379, 1-[4-(1-acetylpyrrolidin-3-yl)phenyl]-3-(imidazo[1,2-a]pyridin-7-ylmethyl)urea]
40	0.251	179	CC(C)C(=O)N1CCC(c2ccc(NC(=O)NCc3ccn4ccnc4c3)cc2)C1 (stereo not drawn) [Example 380, 1-(imidazo[1,2-a]pyridin-7-ylmethyl)-3-{4-[1-(2-methylpropanoyl)pyrrolidin-3-yl]phenyl}urea]
17.3	0.259	84.1	CC[C@H](C)C(=O)N1CCC(c2ccc(NC(=O)NCc3ccn4ccnc4c3)cc2)C1 (stereo partly drawn) [Example 381]
83.8	0.204	119	O=C(NCc1ccn2ccnc2c1)Nc1ccc(C2CCN(C(=O)CC3CC3)C2)cc1 (stereo not drawn) [Example 382]
13.3	0.225	49.5	O=C(NCc1ccn2ccnc2c1)Nc1ccc(C2CCN(C(=O)c3ccccc3)C2)cc1 (stereo not drawn) [Example 383, 1-[4-(1-benzoylpyrrolidin-3-yl)phenyl]-3-(imidazo[1,2-a]pyridin-7-ylmethyl)urea]
51.7	0.375	406	CC(C)OCC(=O)N1CCC(c2ccc(NC(=O)NCc3ccn4ccnc4c3)cc2)C1 (stereo not drawn) [Example 384, 1-(imidazo[1,2-a]pyridin-7-ylmethyl)-3-(4-{1-[(propan-2-yloxy)acetyl]pyrrolidin-3-yl}phenyl)urea]
110	0.539	491	CC(C)(O)C(=O)N1CCC(c2ccc(NC(=O)NCc3ccn4ccnc4c3)cc2)C1 (stereo not drawn) [Example 385, 1-{4-[1-(2-hydroxy-2-methylpropanoyl)pyrrolidin-3-yl]phenyl}-3-(imidazo[1,2-a]pyridin-7-ylmethyl)urea]
42.4	0.254	283	O=C(NCc1ccn2ccnc2c1)Nc1ccc(C2CCN(C(=O)[C@H]3CCCO3)C2)cc1 (stereo partly drawn) [Example 386, 1-(imidazo[1,2-a]pyridin-7-ylmethyl)-3-(4-{1-[(2R)-tetrahydrofuran-2-ylcarbonyl]pyrrolidin-3-yl}phenyl)urea]
58.1	0.467	419	O=C(NCc1ccn2ccnc2c1)Nc1ccc(C2CCN(C(=O)[C@@H]3CCCO3)C2)cc1 (stereo partly drawn) [Example 387, 1-(imidazo[1,2-a]pyridin-7-ylmethyl)-3-(4-{1-[(2S)-tetrahydrofuran-2-ylcarbonyl]pyrrolidin-3-yl}phenyl)urea]
122	0.506	388	O=C(NCc1ccn2ccnc2c1)Nc1ccc(C2CCN(C(=O)[C@H]3CCOC3)C2)cc1 (stereo partly drawn) [Example 388, 1-(imidazo[1,2-a]pyridin-7-ylmethyl)-3-(4-{1-[(3S)-tetrahydrofuran-3-ylcarbonyl]pyrrolidin-3-yl}phenyl)urea]
78.3	0.617	584	O=C(NCc1ccn2ccnc2c1)Nc1ccc(C2CCN(C(=O)C3CCOCC3)C2)cc1 (stereo not drawn) [Example 389, 1-(imidazo[1,2-a]pyridin-7-ylmethyl)-3-{4-[1-(tetrahydro-2H-pyran-4-ylcarbonyl)pyrrolidin-3-yl]phenyl}urea]
80.3	0.445	133	O=C(NCc1ccn2ccnc2c1)Nc1ccc(C2CCN(C(=O)C3COCCO3)C2)cc1 (stereo not drawn) [Example 390]
78.4	0.227	171	O=C(NCc1ccn2ccnc2c1)Nc1ccc(C2CCN(C(=O)CC3CCOCC3)C2)cc1 (stereo not drawn) [Example 391, 1-(imidazo[1,2-a]pyridin-7-ylmethyl)-3-{4-[1-(tetrahydro-2H-pyran-4-ylacetyl)pyrrolidin-3-yl]phenyl}urea]
666	0.465	814	O=C(NCc1ccn2ccnc2c1)Nc1ccc(C2CCN(C(=O)CN3CCOCC3)C2)cc1 (stereo not drawn) [Example 392, 1-(imidazo[1,2-a]pyridin-7-ylmethyl)-3-{4-[1-(morpholin-4-ylacetyl)pyrrolidin-3-yl]phenyl}urea]
> 10000	4.37	> 10000	CC(C)CCNC(=O)c1ccc(C(=O)NCc2ccn3ccnc3c2)cc1 [Example 393, N-(imidazo[1,2-a]pyridin-7-ylmethyl)-N′-(3-methylbutyl)benzene-1,4-dicarboxamide]
> 10000	3.08	> 10000	O=C(NCc1ccn2ccnc2c1)c1ccc(C(=O)NC[C@@H]2CCOC2)cc1 [Example 394, N-(imidazo[1,2-a]pyridin-7-ylmethyl)-N′-[(3S)-tetrahydrofuran-3-ylmethyl]benzene-1,4-dicarboxamide]
6.34	0.193	12.5	O=C(NCc1ccn2ccnc2c1)c1ccc(-c2cnn(C[C@H]3CCCO3)c2)s1 [Example 395, N-(imidazo[1,2-a]pyridin-7-ylmethyl)-5-{1-[(2R)-tetrahydrofuran-2-ylmethyl]-1H-pyrazol-4-yl}thiophene-2-carboxamide]
32.4	0.36	22.6	O=C(Nc1ccc(C(=O)NCC2CCCCO2)cc1)Nc1ccc2ncc(Cl)n2c1 (stereo not drawn) [Example 396, 4-{[(3-chloroimidazo[1,2-a]pyridin-6-yl)carbamoyl]amino}-N-(tetrahydro-2H-pyran-2-ylmethyl)benzamide]
7.12	0.169	17.7	O=C(NCc1ccn2ccnc2c1)c1ccc(-c2cnn(C[C@@H]3CCCO3)c2)s1 [Example 397, N-(imidazo[1,2-a]pyridin-7-ylmethyl)-5-{1-[(2S)-tetrahydrofuran-2-ylmethyl]-1H-pyrazol-4-yl}thiophene-2-carboxamide]
73.6	0.792	210	O=C(CC1CCOC1)Nc1ccc(C(=O)NCc2ccc3ncc(Cl)n3c2)cc1 (stereo not drawn) [Example 398, N-[(3-chloroimidazo[1,2-a]pyridin-6-yl)methyl]-4-[(tetrahydrofuran-3-ylacetyl)amino]benzamide]
7680	1.54	9500	O=C(NCc1ccn2ccnc2c1)c1ccc(C2(O)CCOCC2)s1 [Example 399, 5-(4-hydroxytetrahydro-2H-pyran-4-yl)-N-(imidazo[1,2-a]pyridin-7-ylmethyl)thiophene-2-carboxamide]
712	0.298	81.2	CC(C)C(=O)N1CC(O)(c2ccc(C(=O)NCc3ccn4ccnc4c3)s2)C1 [Example 400, 5-[3-hydroxy-1-(2-methylpropanoyl)azetidin-3-yl]-N-(imidazo[1,2-a]pyridin-7-ylmethyl)thiophene-2-carboxamide]
55.9	0.292	12.6	O=C(NCc1ccn2ccnc2c1)c1ccc(C2(O)CN(C(=O)c3ccccc3)C2)s1 [Example 401, 5-(1-benzoyl-3-hydroxyazetidin-3-yl)-N-(imidazo[1,2-a]pyridin-7-ylmethyl)thiophene-2-carboxamide]
